pIC50: −log10 of the molar value. Activity calls are given as the source filed them. The rule behind the calls is not given here.
Key:
Homo sapiens [1] = species on record: Homo sapiens; test: Selectivity index, ratio of IC50 for CD95 (unknown origin)/FADD (unknown origin) protein-protein interaction transfected in HEK293T cells to IC50 for CD95 (unknown origin)/PLCgamma-1 SH3 domain (unknown origin) protein-protein interaction transfected in HEK293T cells; format: cell-based
[2] = Inhibition of CD95 (unknown origin)/PLCgamma-1 SH3 domain (unknown origin) protein-protein interaction transfected in HEK293T cells incubated for 1 hr by renilla luciferase based protein-fragment complementation assay; format: cell-based, Homo sapiens
[3] = Inhibition of CD95 (unknown origin)/FADD (unknown origin) protein-protein interaction transfected in HEK293T cells incubated for 1 hr by renilla luciferase based protein-fragment complementation assay; format: cell-based, Homo sapiens
Homo sapiens [4] = species on record: Homo sapiens; test: Inhibition of CD95 (unknown origin)/PLCgamma-1 SH3 domain D808A mutant (unknown origin) protein-protein interaction transfected in HEK293T cells incubated for 1 hr by renilla luciferase based protein-fragment complementation assay; format: cell-based
Homo sapiens [5] = species on record: Homo sapiens; test: Inhibition of CD95 (unknown origin)/PLCgamma-1 SH3 domain Q805A mutant (unknown origin) protein-protein interaction transfected in HEK293T cells incubated for 1 hr by renilla luciferase based protein-fragment complementation assay; format: cell-based

Compound | pIC50 [2] | pIC50 [3] | Ratio IC50 (Homo sapiens [1]) | inhibition (Homo sapiens [4]) | inhibition (Homo sapiens [5])
N=C(N)NCCCCC(=O)N(CCNC(=O)[C@H](Cc1c[nH]cn1)N(CCNC(=O)[C@H](CCCNC(=N)N)N(CCN)C(=O)CCO)C(=O)CCCCCN)[C@@H](CCCCN)C(N)=O | 4.10 | 2.41 | 50 |  | 
C[C@@H](O)[C@H](N)C(=O)NCCN(C(=O)CCS)[C@@H](CCCNC(=N)N)C(=O)NCCN(C(=O)CCCCCN)[C@@H](Cc1c[nH]cn1)C(=O)NCCN(C(=O)CCCCNC(=N)N)[C@@H](CCCCN)C(N)=O | 4.11 | < 2.30 | > 100 | inactive | inactive
N=C(N)NCCC[C@@H](C(=O)NCCN(C(=O)CCCCCN)[C@@H](Cc1c[nH]cn1)C(=O)NCCN(C(=O)CCc1ccc(O)cc1)[C@@H](CCCCN)C(N)=O)N(CCN)C(=O)CCS | 3.18 | < 2.30 | > 10 |  | 
CCC(=O)N(CCN)[C@@H](CCCNC(=N)N)C(=O)NCCN(C(=O)CCCCCN)[C@@H](Cc1c[nH]cn1)C(=O)NCCN(C(=O)CCCCNC(=N)N)[C@@H](CCCCN)C(N)=O | 4.21 | < 2.30 | > 100 |  | 
N=C(N)NCCC[C@@H](C(=O)NCCN(C(=O)CCCCCN)[C@@H](Cc1c[nH]cn1)C(=O)NCCN(C(=O)CCc1ccc(N)cc1)[C@@H](CCCCN)C(N)=O)N(CCN)C(=O)CCS | 3.07 | < 2.30 | > 10 |  | 
H-TCRKHRK-OH | 4.46 | < 2.30 | > 100 |  | 

Second part, led by results:

pIC50 [2] | pIC50 [3] | Compound | Ratio IC50 (Homo sapiens [1]) | inhibition (Homo sapiens [4]) | inhibition (Homo sapiens [5])
3.04 | 2.37 | N=C(N)NCCCCC(=O)N(CCNC(=O)[C@H](Cc1c[nH]cn1)N(CCNC(=O)[C@H](Cc1cccnc1)N(CCN)C(=O)CCS)C(=O)CCCCCN)[C@@H](CCCCN)C(N)=O | 4 |  | 
4.07 | 3.76 | N=C(N)NCCCCC(=O)N(CCNC(=O)[C@H](Cc1c[nH]cn1)N(CCNC(=O)[C@H](Cc1c[nH]c2ccccc12)N(CCN)C(=O)CCS)C(=O)CCCCCN)[C@@H](CCCCN)C(N)=O | 2 |  | 
4.12 | 2.42 | N=C(N)NCCCCC(=O)N(CCNC(=O)[C@H](Cc1c[nH]cn1)N(CCNC(=O)[C@H](CCCNC(=N)N)N(CCN)C(=O)CCS)C(=O)CCCCCN)[C@@H](CCCCN)C(N)=O | 50 |  | 
< 2.30 | < 2.30 | N=C(N)NCCC[C@@H](C(=O)NCCN(C(=O)CCCCCN)[C@@H](Cc1c[nH]cn1)C(=O)NCCN(C(=O)CCCCCC(N)=O)[C@@H](CCCCN)C(N)=O)N(CCN)C(=O)CCS |  |  | 
3.46 | 2.58 | N=C(N)NCCC[C@@H](C(=O)NCCN(C(=O)CCCCCN)[C@@H](Cc1c[nH]cn1)C(=O)NCCN(C(=O)CCc1c[nH]c2ccccc12)[C@@H](CCCCN)C(N)=O)N(CCN)C(=O)CCS | 8 |  | 

Source: ChEMBL document CHEMBL4364338, “Probing the side chain tolerance for inhibitors of the CD95/PLCγ1 interaction” (Bioorg Med Chem Lett, 2019)
